What all share (test): DTP human tumour cell line panel, 48 h
Assay [1] has as its system SF-268 CNS.
The subject of assay [2] is OVCAR-8 ovarian.
Assay [3] concerns UACC-62 melanoma.
Assay [4] has as its system U251 CNS.
The subject of assay [5] is NCI-H23 lung.
In assay [6] the test system is SR leukemia.
The subject of assay [7] is SK-MEL-2 melanoma.
Assay [8] relates to NCI-H226 lung.
The test system of assay [9] is CCRF-CEM leukemia.
In assay [10] the test system is SNB-78 CNS.

This passage reports TGI and GI50 results from PubChem BioAssay (NCI).

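Step 1: Grow cells in 96-well plates. Step 2: Expose to compound for 48 hours at 5 concentrations. Step 3: Interpolate endpoints linearly; if unreached, use highest concentration. At the GI50, growth is halved. TGI marks complete inhibition of growth.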

As usually defined, the TGI is the concentration at which net growth stops. A higher TGI goes with less potent growth arrest. For `CCCCCCC(C)CCCCCCCCCCC(=O)O` (stereo not given), the TGI in [1], in assay [2], in [3], in assay [4], in assay [5] and in [6] was greater than 100 µM in each case. Further, the TGI in assay [7], in assay [8] and in [9] was greater than 100 µM in each case.

In general, GI50 refers to the concentration giving 50% growth inhibition. As for `Nc1cc(-c2ccc(Cl)cc2)nn1-c1nnc(/C=C/c2ccco2)c(=O)[nH]1`, the GI50 is 3.37 µM in assay [1]; 4.09 µM in [2]; 5.45 µM in assay [3]; 3 µM in assay [4]; 7.73 µM in assay [5]; 2.53 µM in assay [6]. Further, the GI50 in [7] is 19 µM; in assay [8] it was 10.1 µM; in assay [9], 2.26 µM. For the same compound, the TGI in assay [1] was 39 µM; in assay [2], 33 µM; in [3] it was greater than 58.6 µM; in [4], 37.7 µM; in assay [5], 63.5 µM; in assay [6], greater than 100 µM. The figures for the TGI in assay [7], in [8] and in [9] were greater than 88.3 µM, 67.4 µM and greater than 41 µM, respectively.

In the case of `CN1c2ccccc2SC2C(c3ccccc3)=NOC21` (stereo not given), the TGI in assay [1] is greater than 100 µM; in assay [2] it was greater than 100 µM; in assay [3] it was greater than 100 µM; in assay [4], greater than 100 µM; in [5], 71.7 µM; in [6], greater than 100 µM. In addition, the TGI in assay [7] was 73.9 µM; in [8] it was greater than 100 µM; in assay [9], greater than 100 µM.

For `N#CC(C#N)=c1c2nsnc2c(=C(C#N)C#N)c2nsnc12`, the TGI was determined as 4.26 µM in assay [1]; 3.12 µM in [2]; 3.19 µM in assay [4]; 3.91 µM in assay [5]; 3.53 µM in assay [7]; 31.9 µM in assay [8]. In assay [10], this compound displayed a TGI of 3.28 µM.

As to `CCOC(=O)c1c(SCCN2CCOCC2)n(-c2ccccc2)c(=S)n(-c2ccccc2)c1=O`, the TGI in assay [1] is greater than 100 µM; in assay [2], greater than 100 µM; in assay [3], greater than 100 µM; in assay [4], greater than 100 µM; in assay [5], 92.3 µM; in [6], 48.2 µM. For the same compound, the TGI in [7] is greater than 100 µM; in assay [8], greater than 100 µM; in assay [9], 99 µM.

Take `COc1cc2nc(-c3ccc(C(F)(F)F)cc3)cc(OCCCN3CCCC3)c2cc1OC`: the GI50 was 3.5 µM in assay [1]; 0.826 µM in assay [2]; 1.57 µM in assay [3]; 1.31 µM in assay [4]; 2.9 µM in assay [5]; 0.207 µM in assay [6]. Further, the figures for the GI50 in assay [7], in assay [8] and in assay [9] were 3.41 µM, 0.737 µM and 1.08 µM, respectively. In addition, the TGI in assay [1] is greater than 48.1 µM; in assay [2] it was greater than 49.7 µM; in assay [3], 6.6 µM; in assay [4], 18.8 µM; in assay [5], 17.6 µM; in assay [7] it was 11.2 µM. The TGI is 10.6 µM in [8] and 9.92 µM in assay [9].

Regarding `Cc1ccc(NC(=O)/C(Cc2cc(=O)oc3cc(O)ccc23)=N\NC(=O)C[N+](C)(C)C)cc1C`, the total growth inhibition concentration (TGI) in assay [1], in assay [2], in [3], in assay [4], in [5] and in [6] was greater than 100 µM in each case. In addition, the TGI in assay [7], in assay [8] and in assay [9] was greater than 100 µM throughout.

For `O=C1c2ccccc2-c2c1c1c(NCCCO)nc3ccccc3c1n2Cc1ccccc1`, the GI50 is 22.7 µM in assay [1]; 35 µM in [2]; 18.7 µM in assay [3]; 20.8 µM in assay [4]; 14.4 µM in [5]; 6.04 µM in assay [6]. Further, the GI50 in [7] was 20.4 µM; in assay [8] it was 41.3 µM; in assay [9], 17.6 µM. For the same compound, the TGI in assay [1] was 51.9 µM; in assay [2] it was greater than 100 µM; in assay [3], 36.5 µM; in [4], 44.9 µM; in assay [5], 34.9 µM; in assay [6], 24.1 µM. In addition, the concentration for total growth inhibition (TGI) was 52.3 µM in assay [7], greater than 100 µM in [8] and 45.9 µM in [9].

As for `COc1ccc(-c2cnoc2-c2cc(OC)c3c(c2)OCCO3)cc1`, the GI50 is 0.127 µM in assay [1]; 0.0524 µM in [2]; less than 0.015 µM in assay [3]; 0.0521 µM in assay [4]; 0.0599 µM in assay [5]; 0.0226 µM in [6]. The figures for the GI50 in assay [7], in [8] and in [9] were 0.0279 µM, 0.738 µM and 0.0379 µM, respectively. Also, the TGI in assay [1] was greater than 100 µM; in assay [2], greater than 59.1 µM; in [3], greater than 100 µM; in [4], greater than 100 µM; in assay [5], greater than 100 µM; in assay [6], 6.29 µM. Moreover, the TGI is 16.2 µM in assay [7], greater than 94.4 µM in [8] and greater than 100 µM in [9].

For the compound `COc1ccc2[nH]c(-c3ccc(O)cc3)cc(=O)c2c1`, the TGI in [1] is 20.6 µM; in assay [2] it was 13.1 µM; in assay [3], 38.9 µM; in assay [4] it was 9.29 µM; in [5] it was 6.38 µM; in assay [8] it was 4.81 µM. Also, the TGI in assay [9] is 21.9 µM; in [10], greater than 100 µM.

Take `CCNCCNc1cc(-c2ccc(C#N)cc2)c(C#N)c2nc3ccccc3n12`: the GI50 is 3.42 µM in [1]; 5.15 µM in assay [2]; 2.02 µM in assay [3]; 2.34 µM in assay [4]; 5.3 µM in [5]; 2.59 µM in assay [6]. For the same compound, the GI50 was 3.2 µM in [7], 2.59 µM in assay [8] and 2.49 µM in assay [9]. Also, the TGI in assay [1] turned out to be 14.1 µM; in [2], 16.9 µM; in assay [3], 4.18 µM; in assay [4] it was 5.2 µM; in assay [5], 21.3 µM; in assay [6], 6.74 µM. Further, the TGI in [7] was 10.4 µM; in assay [8], 11.9 µM; in [9], 9.9 µM.
